{"source": "patent EP0579169B1", "about": "“Alkylenediamine derivatives” (NIPPON CHEMIPHAR CO., LTD., priority 1992, dated 1994)", "key": {"[1]": {"tested_on": "rhythmic bladder contraction", "experiment": "Test for inhibition of urinating contraction of bladder (rhythmic bladder contraction, anesthetized rat, saline infusion into the closed bladder)", "type": "in vivo", "details": "i.v., urethane-anesthetized male Wistar rat, control (physiological saline) 1.6 min.", "method": "(I) Test for Inhibition of Urinating Contraction of Bladder\nWith respect to inhibition of the urinating contraction of bladder, performance of the compound of the present invention was evaluated by the following method.\nA male Wistar rat was anesthetized with urethane (1.5 g/kg, s.c.) and fixed on its back on a board. Into the trachea of the rat, a tracheotomy tube was inserted in order to insure an airway, and then midline incisura was carried out to denude the bladder. Subsequently, a small opening was produced on the top of the bladder and the urine was exhausted, and then a polyethylene cannula (diameter: approx. 1 mm) was inserted into the bladder. The urethra and the ureter were tied up to make the bladder a closed system.\nBy means of an infusion pump, phsiological saline was poured into the bladder of rat at a rate of 0.05 ml/min. induce the rhythmic bladder contraction. Subsequently, intravesical pressure was measured by a pressure transducer and recorded on a pen-writing recorder. The test compound was dissolved in physiological saline and then administered into the femoral vein through a polyethylene cannula.\nPerformance for inhibiting the urinary bladder contraction was evaluated by measuring the period (inhibiting period) in which the rhythmic bladder contraction was inhibited. As the medicament, each of the compounds obtained in Examples was used."}, "[2]": {"experiment": "Toxicity, LD50 by the up-and-down method", "type": "in vivo", "details": "mouse, in vivo, iv", "excerpt": "(§1) With respect to toxicity of the compounds of the invention, each LD50 (mg/kg) measured by the up-and-down method is also set forth in Table 1."}, "Urinary bladder strips": {"tested_on": "Urinary bladder strips", "experiment": "Effect on isolated urinary bladder smooth muscle (contraction elicited by acetylcholine or norepinephrine)", "set-up": "species or system male Japanese white rabbits", "details": "rabbit urinary bladder strips, Krebs solution 37°C; pretreatment five minutes before, concentration 1x10^-5 to 3x10^-5 (unit not given)", "method": "(II) Effect on Isolated Urinary Bladder Smooth Muscle\nUrinary bladder strips were obtained from male Japanese white rabbits (weight: 2.00-2.80 kg). Each strip was suspended in an organ bath containing Krebs solution. The organ bath was maintained at 37°C and constantly gassed with carbogen. Cumulative concentration-response curves of acetylcholine and norepinephrine were obtained.\nThe compound to be tested (compound of Example 2 (i.e., 5-benzyl-3-(3-morpholino-1-phenylpropyl)-1,3-oxazolidin-2-one fumarate) was introduced into the Krebs solution five minutes prior to the introduction of acetylcholine or norepinephrine to elicit the contractive action.\nTherefore, it has been confirmed that the tested compound depresses the bladder contraction not by acting on the peripheral nerves system but on the central nurves system."}, "mouse": {"tested_on": "mouse", "experiment": "Toxicity, LD50 by the up-and-down method", "type": "in vivo", "details": "i.v.", "excerpt": "as §1"}}}
{"smiles": "O=C(O)/C=C/C(=O)O.O=C1OC(CCc2ccccc2)CN1C(CCN1CCOCC1)c1ccccc1", "note": "(single isomer, unassigned) [Example 50, 3-(3-Morpholino-1-phenylpropyl)-5-(2-phenylethyl)-1,3-oxazolidin-2-one fumarate]", "values": [{"measurement": "Period (inhibiting period in which the rhythmic bladder contraction was inhibited)", "setting": "[1]; dose 5 mg/kg", "result": 7.5, "unit": "min"}, {"measurement": "LD50", "setting": "[2]", "result": 45, "unit": "mg/kg"}]}
{"smiles": "CC(C)CC1COC(=O)N1C(CCN1CCOCC1)c1ccccc1.O=C(O)/C=C/C(=O)O", "note": "(single isomer, unassigned) [Example 67, 4-Isobutyl-3-(3-morpholino-1-phenylpropyl)-1,3-oxazolidin-2-one fumarate]", "values": [{"measurement": "Period (inhibiting period in which the rhythmic bladder contraction was inhibited)", "setting": "[1]; dose 14 mg/kg", "result": 3.5, "unit": "min"}, {"measurement": "LD50", "setting": "[2]", "result": 137, "unit": "mg/kg"}]}
{"smiles": "O=C(O)/C=C/C(=O)O.O=C1OC(Cc2ccccc2)CN1C(CCN1CCOCC1)c1ccccc1", "note": "(single isomer, unassigned) [Example 2, 5-Benzyl-3-(3-morpholino-1-phenylpropyl)-1,3-oxazolidin-2-one fumarate]", "values": [{"measurement": "Period (inhibiting period in which the rhythmic bladder contraction was inhibited)", "setting": "[1]; dose 8 mg/kg, fumarate", "result": 5.4, "unit": "min"}, {"measurement": "action on the contraction caused by acetylcholine", "setting": "Urinary bladder strips", "result": "did not give any effective action"}, {"measurement": "action on the contraction caused by norepinepherine", "setting": "Urinary bladder strips", "result": "did not give any effective action"}, {"measurement": "LD50", "setting": "[2]", "result": 76, "unit": "mg/kg"}]}
{"smiles": "O=C(O)/C=C/C(=O)O.O=C1OC(Cc2ccccc2)CN1C(CCN1CCOCC1)c1ccccc1", "note": "(single isomer, unassigned; (-)) [Example 3, (-)-5-Benzyl-3-(3-morpholino-1-phenylpropyl)-1,3-oxazolidin-2-one fumarate]", "values": [{"measurement": "Period (inhibiting period in which the rhythmic bladder contraction was inhibited)", "setting": "[1]; dose 8 mg/kg, fumarate", "result": 6.0, "unit": "min"}, {"measurement": "LD50/mouse", "setting": "mouse; fumarate", "result": 49, "unit": "mg/kg"}]}
{"smiles": "CS(=O)(=O)O.O=C1OC(Cc2cccc3ccccc23)CN1C(CCN1CCOCC1)c1ccccc1", "note": "(single isomer, unassigned) [Example 46, 5-(1-Naphthyl)methyl-3-(3-morpholino-1-phenylpropyl)-1,3-oxazolidin-2-one mesylate]", "values": [{"measurement": "Period (inhibiting period in which the rhythmic bladder contraction was inhibited)", "setting": "[1]; dose 5 mg/kg", "result": 6.0, "unit": "min"}, {"measurement": "LD50", "setting": "[2]", "result": "> 20", "unit": "mg/kg"}]}
{"smiles": "O=C1OC(Cc2ccccc2)CN1C(CCN1CCOCC1)c1cccs1", "note": "(single isomer, unassigned) [Example 61, 5-Benzyl-3-[3-morpholino-1-(2-thienyl)propyl]-1,3-oxazolidin-2-one]", "values": [{"measurement": "Period (inhibiting period in which the rhythmic bladder contraction was inhibited)", "setting": "[1]; dose 6 mg/kg", "result": 6.5, "unit": "min"}, {"measurement": "LD50", "setting": "[2]", "result": 59, "unit": "mg/kg"}]}
{"smiles": "O=C(O)/C=C/C(=O)O.O=C1OC(CCc2ccccc2Br)CN1C(CCN1CCOCC1)c1ccccc1", "note": "(single isomer, unassigned) [Example 25, 5-[2-(2-bromophenyl)ethyl]-3-(3-morpholino-1-phenylpropyl)-1,3-oxazolidin-2-one fumarate]", "values": [{"measurement": "Period (inhibiting period in which the rhythmic bladder contraction was inhibited)", "setting": "[1]; dose 8 mg/kg", "result": 7.5, "unit": "min"}, {"measurement": "LD50", "setting": "[2]", "result": 79, "unit": "mg/kg"}]}
{"smiles": "O=C(O)/C=C/C(=O)O.O=C1OC(Cc2cccs2)CN1C(CCN1CCOCC1)c1ccccc1", "note": "(single isomer, unassigned) [Example 56, 3-(3-Morpholino-1-phenylpropyl)-5-(2-thenyl)-1,3-oxazolidin-2-one fumarate]", "values": [{"measurement": "Period (inhibiting period in which the rhythmic bladder contraction was inhibited)", "setting": "[1]; dose 11 mg/kg", "result": 4.7, "unit": "min"}, {"measurement": "LD50/mouse", "setting": "mouse; fumarate", "result": 111, "unit": "mg/kg"}]}
{"smiles": "O=C1OC(Cc2ccccc2)CN1C(CCN1CCOCC1)c1cccs1", "note": "(single isomer, unassigned) [Example 62, 5-Benzyl-3-[3-morpholino-1-(2-thienyl)propyl]-1,3-oxazolidin-2-one]", "values": [{"measurement": "Period (inhibiting period in which the rhythmic bladder contraction was inhibited)", "setting": "[1]; dose 6 mg/kg", "result": 7.2, "unit": "min"}, {"measurement": "LD50/mouse", "setting": "mouse", "result": 63, "unit": "mg/kg"}]}
{"smiles": "O=C(O)/C=C/C(=O)O.O=C1OC(Cc2ccccc2)CN1C(CCN1CCOCC1)c1ccccc1", "note": "(single isomer, unassigned; (+)) [Example 4, (+)-5-Benzyl-3-(3-morpholino-1-phenylpropyl)-1,3-oxazolidin-2-one fumarate]", "values": [{"measurement": "Period (inhibiting period in which the rhythmic bladder contraction was inhibited)", "setting": "[1]; dose 8 mg/kg, fumarate", "result": 3.8, "unit": "min"}, {"measurement": "LD50/mouse", "setting": "mouse; fumarate", "result": 77, "unit": "mg/kg"}]}
{"smiles": "O=C(O)/C=C/C(=O)O.O=C1COC(Cc2ccccc2Br)CN1C(CCN1CCOCC1)c1ccccc1", "note": "(single isomer, unassigned) [Example 70, 2-(2-Bromobenzyl)-4-(3-morpholino-1-phenylpropyl)-5-morpholinone fumarate]", "values": [{"measurement": "Period (inhibiting period in which the rhythmic bladder contraction was inhibited)", "setting": "[1]; dose 6 mg/kg", "result": 1.5, "unit": "min"}, {"measurement": "LD50", "setting": "[2]", "result": "> 60", "unit": "mg/kg"}]}
{"smiles": "O=C(O)/C=C/C(=O)O.O=C1OC(Cc2cccs2)CN1C(CCN1CCOCC1)c1ccccc1", "note": "(single isomer, unassigned) [Example 55, 3-(3-Morpholino-1-phenylpropyl)-5-(2-thenyl)-1,3-oxazolidin-2-one fumarate]", "values": [{"measurement": "Period (inhibiting period in which the rhythmic bladder contraction was inhibited)", "setting": "[1]; dose 8 mg/kg", "result": 4.6, "unit": "min"}, {"measurement": "LD50", "setting": "[2]", "result": 84, "unit": "mg/kg"}]}
{"smiles": "O=C(O)/C=C/C(=O)O.O=C1OCC(Cc2ccccc2)N1C(CCN1CCOCC1)c1ccccc1", "note": "(single isomer, unassigned) [Example 69, 4-Benzyl-3-(3-morpholino-1-phenylpropyl)-1,3-oxazolidin-2-one fumarate]", "values": [{"measurement": "Period (inhibiting period in which the rhythmic bladder contraction was inhibited)", "setting": "[1]; dose 8 mg/kg", "result": 6.6, "unit": "min"}, {"measurement": "LD50", "setting": "[2]", "result": 76, "unit": "mg/kg"}]}
{"smiles": "O=C(O)/C=C/C(=O)O.O=C1OC(CCc2ccccc2Cl)CN1C(CCN1CCOCC1)c1ccccc1", "note": "(single isomer, unassigned) [Example 27, 5-[2-(2-Chlorophenyl)ethyl]-3-(3-morpholino-1-phenylpropyl)-1,3-oxazolidin-2-one fumarate]", "values": [{"measurement": "Period (inhibiting period in which the rhythmic bladder contraction was inhibited)", "setting": "[1]; dose 8 mg/kg", "result": 8.0, "unit": "min"}, {"measurement": "LD50", "setting": "[2]", "result": 75, "unit": "mg/kg"}]}
{"smiles": "O=C(O)/C=C/C(=O)O.O=C1OC(Cc2ccccc2Br)CN1C(CCN1CCOCC1)c1ccccc1", "note": "(single isomer, unassigned) [Example 13, 5-(2-Bromophenyl)methyl-3-(3-morpholino-1-phenylpropyl)-1,3-oxazolidin-2-one fumarate]", "values": [{"measurement": "Period (inhibiting period in which the rhythmic bladder contraction was inhibited)", "setting": "[1]; dose 5 mg/kg", "result": 6.5, "unit": "min"}, {"measurement": "LD50", "setting": "[2]", "result": 48, "unit": "mg/kg"}]}
